The values below come from patent US11096939B2, “KRAS G12C inhibitors and methods of using the same” (Amgen Inc., priority 2018, dated 2021).

Assay [1] deals with Phosphorylation of ERK1/2 in MIA PaCa-2 cells. Briefly: Phospho-ERK1/2 MSD assay. Format: cell-based. Conditions: compound 2 or 4 hours, 10 ng/mL EGF for 10 min, read-out: p-ERK IC50 (MIA-PaCa-2). On the procedure:
Phospho-ERK1/2 MSD Assay:
MIA PaCa-2 (ATCC® CRL-1420™)-cells were cultured in RPMI 1640 Medium (ThermoFisher Scientific 11875093) containing 10% fetal bovine serum (ThermoFisher Scientific 16000044) and 1× penicillin-streptomycin-glutamine (ThermoFisher Scientific 10378016). Sixteen hours prior to compound treatment, MIA PaCa-2 cells were seeded in 96-well cell culture plates at a density of 25,000 cells/well and incubated at 37° C., 5% CO2. A compound dose-response titration was diluted in growth media, added to appropriate wells of a cell culture plate, and then incubated at 37° C., 5% CO2 for 2 or 4 hours. Following compound treatment, cells were stimulated with 10 ng/mL EGF (Roche 11376454001) for 10 min, washed with ice-cold Dulbecco's phosphate-buffered saline, no Ca^2+ or Mg^2+ (ThermoFisher Scientific 14190144), and then lysed in RIPA buffer (50 mM Tris-HC pH 7.5, 1% Igepal, 0.5% sodium deoxycholate, 150 mM NaCl, and 0.5% sodium dodecyl sulfate) containing protease inhibitors (Roche 4693132001) and phosphatase inhibitors (Roche 4906837001). Phosphorylation of ERK1/2 in compound-treated lysates was assayed using Phospho-ERK1/2 Whole Cell Lysate kits (Meso Scale Discovery KI51DWD) according to the manufacturer's protocol. Assay plates were read on a Meso Scale Discovery Sector Imager 6000, and data were analyzed using a 4-parameter logistic model to calculate IC50 values.

The target of assay [2] is GDP-bound KRAS protein (aa 1-169), containing both G12C and C118A amino acid substitutions (Homo sapiens, UniProt P01116, C118A/G12C). Briefly: Coupled nucleotide exchange assay (SOS-mediated, AlphaScreen). Conditions: compound pre-incubation either 5 min or 2 hours (not stated per value); SOS and GTP added, cRAF AlphaScreen readout. Format: biochemical. The method, then: Coupled Nucleotide Exchange Assay:
Following compound pre-incubation, purified SOS protein (aa 564-1049) and GTP (Roche 10106399001) were added to the assay wells and incubated for an additional 30 min (for 5 min compound pre-incubation) or 1 hour (for 2 hour compound pre-incubation). To determine the extent of inhibition of SOS-mediated nucleotide exchange, purified GST-tagged cRAF (aa 1-149), nickel chelate AlphaLISA acceptor beads (PerkinElmer AL108R), and AlphaScreen glutathione donor beads (PerkinElmer 6765302) were added to the assay wells and incubated for 10 minutes. The assay plates were then read on a PerkinElmer EnVision Multilabel Reader, using AlphaScreen® technology, and data were analyzed using a 4-parameter logistic model to calculate IC50 values.

Setting [3] is: Homo sapiens, MIA PaCa-2, MIA PaCa-2 cells.

Read-outs that look alike come from different tables or passages of the source.

Chain of GDP-bound KRAS protein (aa 1-169), containing both G12C and C118A amino acid substitutions (P01116 1-169 isoform P01116-2 G12C/C118A): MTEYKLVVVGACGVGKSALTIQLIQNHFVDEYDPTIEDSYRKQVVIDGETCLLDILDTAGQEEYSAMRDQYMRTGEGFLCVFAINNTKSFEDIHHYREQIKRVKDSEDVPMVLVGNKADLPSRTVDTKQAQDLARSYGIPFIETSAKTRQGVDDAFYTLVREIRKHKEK

Consider `C=CC(=O)N1CCN(C2=NC(=O)C(C)(CC(C)C)c3nc(-c4ccccc4F)c(Cl)cc32)[C@@H](C)C1` (single isomer, unassigned) [Example 3-1-2], for which the IC50 in assay [1] (setting [3]) stood at 1770 nM. The “Coupled Exchange IC50” value in assay [2] was 13300 nM.

In the case of `C=CC(=O)N1C[C@H](C)N(C2=NC(=O)C(C)(C3CC3)c3nc(-c4ccccc4F)c(Cl)cc32)C[C@H]1C` (single isomer, unassigned) [Example 1-2-1], the IC50 in assay [1] (MIA PaCa-2 cells) was determined as 1450 nM. Also, the “Coupled Exchange IC50” value in assay [2] turned out to be 5150 nM.

Consider `C=CC(=O)N1C[C@H](C)N(C2=NC(=O)C3(CCCCC3)c3nc(-c4ccccc4F)c(Cl)cc32)C[C@H]1C` [Example 1-6, 5′-((2S,5R)-4-Acryloyl-2,5-dimethylpiperazin-1-yl)-3′-chloro-2′-(2-fluorophenyl)-7′H-spiro[cyclohexane-1,8′-[16,]naphthyridin]-7′-one], for which, in assay [1] (setting [3]), the IC50 was determined as 3310 nM. The “Coupled Exchange IC50” value in assay [2] came out at 7280 nM.

Take `C=CC(=O)N1C[C@H](C)N(C2=NC(=O)C3(CCc4ccccc43)c3nc(-c4ccccc4F)c(Cl)cc32)C[C@H]1C` (stereo partly drawn) [Example 1-7, 5′-((2S,5R)-4-Acryloyl-2,5-dimethylpiperazin-1-yl)-3′-chloro-2′-(2-fluorophenyl)-2,3-dihdyro-7′H-spiro[indene-1,8′-[1,6]naphthyridin]-7′-one]: in assay [1] (setting [3]), the IC50 stood at 1760 nM. Besides, the “Coupled Exchange IC50” value in assay [2] stood at 8040 nM.

On to `C=CC(=O)N1C[C@H](C)N(C2=NC(=O)C(C)(CC)c3nc(-c4ccccc4F)c(Cl)cc32)C[C@H]1C` (single isomer, unassigned) [Example 1-4-1], for which the IC50 in assay [1] (setting [3]) turned out to be 2740 nM. For the same molecule, the “Coupled Exchange IC50” value in assay [2] was found to be 11200 nM.

Turning to `C=CC(=O)N1C[C@H](C)N(C2=NC(=O)C(C)(CC(C)C)c3nc(-c4ccccc4F)c(Cl)cc32)C[C@H]1C` (single isomer, unassigned) [Example 1-8-2], the IC50 in assay [1] (MIA PaCa-2 cells) was 1620 nM. Further, in assay [2], the “Coupled Exchange IC50” value was 4950 nM.

In the case of `C=CC(=O)N1C[C@H](C)N(C2=NC(=O)C(C)(CC(C)C)c3nc(-c4ccccc4F)c(Cl)cc32)C[C@H]1C` (stereo partly drawn) [Example 1-8, 5-((2S,5R)-4-Acryloyl-2,5-dimethylpiperazin-1-yl)-3-chloro-2-(2-fluorophenyl)-8-isobutyl-8-methyl-1,6-naphthyridin-7(8H)-one], the IC50 in assay [1] (MIA PaCa-2 cells) amounted to 3690 nM. Moreover, the “Coupled Exchange IC50” value in assay [2] is 5780 nM.

Take `C=CC(=O)N1C[C@H](C)N(C2=NC(=O)C(C)(C3CCC3)c3nc(-c4ccccc4F)c(Cl)cc32)C[C@H]1C` (single isomer, unassigned) [Example 1-3-2]: the IC50 in assay [1] (setting [3]) came to 350 nM. Moreover, the “Coupled Exchange IC50” value in assay [2] was found to be 550 nM.

For the molecule `C=CC(=O)N1C[C@H](C)N(C2=NC(=O)C(C)(C3CC3)c3nc(-c4ccccc4F)c(Cl)cc32)C[C@H]1C` (stereo partly drawn) [Example 1-2, 5-((2S,5R)-4-Acryloyl-2,5-dimethylpiperazin-1-yl)-3-chloro-8-cyclopropyl-2-(2-fluorophenyl)-8-methyl-1,6-naphthyridin-7(8H)-one], the IC50 in assay [1] (setting [3]) was 1630 nM. Further, the “Coupled Exchange IC50” value in assay [2] came to 20100 nM.

On to `C=CC(=O)N1C[C@H](C)N(C2=NC(=O)C3(CCc4ccccc43)c3nc(-c4ccccc4F)c(Cl)cc32)C[C@H]1C` (single isomer, unassigned) [Example 1-7-1], for which the IC50 in assay [1] (MIA PaCa-2 cells) stood at 1720 nM. For the same molecule, the “Coupled Exchange IC50” value in assay [2] was found to be 5280 nM.

`C=CC(=O)N1C[C@H](C)N(C2=NC(=O)C3(CCc4ccccc43)c3nc(-c4ccccc4F)c(Cl)cc32)C[C@H]1C` (single isomer, unassigned) [Example 1-7-2]: the half-inhibitory concentration (IC50) in assay [1] (MIA PaCa-2 cells) was determined as 3260 nM. Also, the “Coupled Exchange IC50” value in assay [2] is 7740 nM.

For `C=CC(=O)N1C[C@H](C)N(C2=NC(=O)C3(Cc4ccccc4C3)c3nc(-c4ccccc4F)c(Cl)cc32)C[C@H]1C` [Example 2-2, 5′-((2S,5R)-4-acryloyl-2,5-dimethylpiperazin-1-yl)-3′-chloro-2′-(2-fluorophenyl)-1,3-dihydro-7′H-spiro[indene-2,8′-[1,6]naphthyridin]-7′-one], the IC50 in assay [1] (setting [3]) was determined as 1770 nM. In addition, in assay [2], the “Coupled Exchange IC50” value turned out to be 3370 nM.

As to `C=CC(=O)N1C[C@H](C)N(C2=NC(=O)C(C)(C3CCC3)c3nc(-c4ccccc4F)c(Cl)cc32)C[C@H]1C` (stereo partly drawn) [Example 1-3, 5-((2S,5R)-4-Acryloyl-2,5-dimethylpiperazin-1-yl)-3-chloro-8-cyclobutyl-2-(2-fluorophenyl)-8-methyl-1,6-naphthyridin-7(8H)-one], the IC50 in assay [1] (setting [3]) was 950 nM. Further, in assay [2], the “Coupled Exchange IC50” value worked out at 1690 nM.
